Experimental data: patent US20250114390A1, “MULTI-ACTIVE TABLET IN THE TREATMENT AND CONTROL OF SEVERE CHRONIC PAIN AND METHOD OF PREPARATION” (LABORATORIOS SILANES S.A. DE C.V., priority 2023, published 2025)
Converted amounts (≈) assume the structure as drawn. Read-outs that look alike come from different tables or passages of the source.

How the values were obtained:
[1] = cited from earlier work
[2] = cited from earlier work; remark: listed apart in the source
[3] = tested on: healthy subjects; assay: Adverse events in the comparative bioavailability clinical trial; conditions: single dose
Source text: The study was open, longitudinal, prospective, with a 3×6×3 design, with random assignment, single dose, three treatments, three periods and six sequences under fasting conditions, in a healthy Mexican female and male population with a washout time for drug elimination of one week (07 days) between each period.
Due to the COVID-19 health emergency, the 42 research subjects were divided into two hospitalization groups: Group 1 with 22 research subjects and Group 2 with 20 research subjects. After fasting for at least 10 hours, a blood sample was taken at time 0.00 hours, and a dose of celecoxib/pregabalin/vitamin B, 200 mg/150 mg tablets/vitamin B12 500 μg/vitamin B1 100 mg/vitamin B6 50 mg was administered, in a single dose of the test medicament or the reference medicament as monotherapy (celecoxib 200 mg capsule or pregabalin 150 mg capsule) according to prior randomization, orally with 250 ml of water at room temperature. After administration of the corresponding medicament, another 17 samples were taken at the following times: 0.50, 0.75, 1.00, 1.33, 1.66, 2.00, 2.50, 3.00, 3.50, 4.00, 6.00, 8.00, 10.00, 14.00, 24.00, 36.00- and 48.00-hours post-dose.

Cc1ccc(-c2cc(C(F)(F)F)nn2-c2ccc(S(N)(=O)=O)cc2)cc1 [Celecoxib]
Solubility [1]: 3300 µg/mL (≈ 8.65 mM) | Solubility (biopharmaceutical classification) [1]: low solubility | Cmax of celecoxib ([2]; Author: Center for Drug Evaluation, 1999): 600.0 ± 900.00 ng/mL | ABC0-t of celecoxib ([2]; Author: Laboratorios Silanes): 5593.760 ± 2158.606 ng/mL*h | Cmax of celecoxib ([2]; Author: Laboratorios Silanes): 602.685 ± 301.48 ng/mL | ABC0-t of celecoxib ([2]; Author: Lilitkarntrakul, P): 5157.12 ± 1499.46 ng/mL*h | Cmax of celecoxib ([2]; Author: Lilitkarntrakul, P): 686.83 ± 211.35 ng/mL | ABC0-t of celecoxib ([2]; Author: Paulson, S): 5994.0 ± 2393.0 ng/mL*h | Cmax of celecoxib ([2]; Author: Paulson, S): 806.0 ± 411.0 ng/mL | ABC0-t of celecoxib ([2]; Author: Sy-Yeuan J): 7267.48 ± 2077.68 ng/mL*h | Cmax of celecoxib ([2]; Author: Sy-Yeuan J): 703.86 ± 329.91 ng/mL

CC(C)C[C@H](CN)CC(=O)O [Pregabalin]
Adverse events probably related to dosing, total [3]: 16 events | Events of dizziness [3]: 13 events | Events of headache [3]: 1 events | Events of paresthesia [3]: 1 events | Events of visual disturbances [3]: 1 events | Permeability (biopharmaceutical classification) ([1]; not told): high permeability

Cc1ncc(CO)c(CO)c1O [Pyridoxine]
Stability (description) ([1]; air, light): stable in air and slowly decomposes with light | pKa [1]: 9.4 | Solubility in alcohol ([1]; in words): slightly soluble | Solubility in diethyl ether ([1]; in words): almost insoluble | Solubility in water ([1]; in words): Easily soluble

Cc1ncc(C[n+]2csc(CCO)c2C)c(N)n1 [Thiamine]
pKa [1]: 15.5 | Solubility in chloroform ([1]; in words): very slightly soluble | Solubility in diethyl ether ([1]; in words): almost insoluble | Solubility in ethanol ([1]; in words): slightly soluble | Solubility in hot water ([1]; in words): Freely soluble | Solubility in methanol ([1]; in words): slightly soluble | Solubility in water ([1]; in words): slightly soluble

Cyanocobalamin
pH ([1]; 1 g/L at 20° C.): 6.0 | Solubility [1]: 12000 µg/mL | pKa [1]: 1.82 | Solubility in acetone ([1]; in words): almost insoluble | Solubility in alcohol ([1]; in words): Soluble | Solubility in chloroform ([1]; in words): almost insoluble | Solubility in diethyl ether ([1]; in words): almost insoluble | Solubility in water ([1]; in words): slightly soluble
